Assay results published in patent US20140213567A1, “TAZOBACTAM ARGININE ANTIBIOTIC COMPOSITIONS” (Cubist Pharmaceuticals, Inc., priority 2012, published 2014).

Assay: Hygroscopicity of solid form
Format: physicochemical
Conditions: relative to amorphous tazobactam arginine and amorphous tazobactam sodium

## C[C@]1(Cn2ccnn2)[C@H](C(=O)O)N2C(=O)CC2S1(=O)=O (stereo partly shown) [Tazobactam arginine polymorph Ia, Tazobactam Arginine]
  hygroscopicity: low hygroscopicity
